Measured values as given in patent US11337420B2, “Cryopreservation of juvenile stages of barnacles” (Planktonic AS, priority 2016, dated 2022).
Where two headings read alike, the source gives them in different places.

Tests used:
[1] = test system: Barnacle nauplii stage I and II of Semibalanus balanoides
Method: Samples were taken out after 0, 1, 2, 4, 8, 12, and 24 hours and the cryoprotectant was washed out to check viability of the nauplii. Levels of viability were identified as 0, 1, 2, 3, 4 and 5. “0” represents no activity (dead nauplii), 1-3 are twitching of appendages less than pre-cryopreserved nauplii, but 3 are close to natural swimming. 4 are swimming as pre-cryopreserved nauplii, and 5 are over-stimulated nauplii.

[2] = test system: Barnacle nauplii stage I and II from Semibalanus balanoides or Balanus crenatus; details: 7.2 molar solution, 1:1 mixing between cryoprotectant and organisms
Method: (§1) Barnacle nauplii (Semibalanus balanoides or Balanus crenatus) were drained and concentrated (10% dry weight) and mixed 1:1 with a cryoprotectant (on ice). The mixture was filled, sealed and equilibrated in a pouch (600 gram consisting of 300 ml cryoprotectant and 300 ml barnacles) for 30 minutes at 5 ° C. before transferring to a controlled freezer. The pouch was put in an aluminum rack, and temperature loggers were put inside the pouch and in the freezer to measure air temperature. Alternatively smaller amount of about 60 g or vials were used in the tests.
(§2) After freezing from 5 to −42 ° C., with a duration of >12 hours using the disclosed method, the pouches were soaked in liquid nitrogen until −196 ° C. were homogenously achieved inside the pouches. The pouches were transferred to cryocontainers (with liquid nitrogen) of 175 liters, and stored for more than 48 hours. To check viability, the pouches were removed from the cryocontainer, crushed to get out the content and thawed in cold seawater (less than 5 ° C.). After 15 minutes, the thawed nauplii were washed on a 100 μm filter to remove the cryoprotectant. Revitalization was performed for >8 hours in an aerated tank with 30 PSU seawater (start temperature 2.5 ° C.).

[3] = test system: Barnacle nauplii stage I and II from Semibalanus balanoides; assay: Cryopreservation, thawing and revitalization of nauplii, viability check (different cryoprotectants, volume ratios, equilibrium periods); type: in vivo
Method: as §1, §2
Barnacle nauplii stage I and II from Semibalanus balanoides were treated with a 6 molar solution of dimethyl sulfoxide (DMSO) as cryoprotectant and 1:1 mixing between cryoprotectant and organisms. Equilibrium was performed for 30 minutes at 3 to 5° C.
Samples of these organisms were cryopreserved in a volume ratio of A) 30% cryoprotectant to 70% organisms (volume/volume) and B) 40% cryoprotectant to 60% organisms (volume/volume). The control was C) 50% cryoprotectant to 50% organisms (volume/volume). All tests were carried out in triplicate.
(1:1 volume ratio with organisms). Thereafter the organisms were cryopreserved by the disclosed method, stored in liquid nitrogen for 48 hours, thawed and revitalized. The barnacle nauplii were analyzed for their vitality using a binocular microscope.

[4] = for content of ethylene glycol in drained barnacle nauplii: revitalization in 30 liters of seawater
Description: Immediately after thawing, the nauplii was drained for water and frozen again.
A small piece of frozen material was taken on a filter, and rinsed until it was thawed, and thereafter frozen and analyzed. […] When revitalized, the barnacle nauplii were drained again for seawater, and added 30 liters of seawater.

aquatic organisms = aquatic organisms in general; cited from earlier work
[5] = test system: nauplii of Balanus amphitrite; details: 3 to 4 M, equilibration time up to 2 h; cited from earlier work
nauplii = details: salt in the cryoprotectant solution compared to no salt addition
Description: The final salt concentration of NaCl is thereby preferably between 2.0 to 4.5%, more preferably between 3.0 to 3.8%, most preferred between 3.2 and 3.8%.

[6] = 600 gram sample in 15 liter seawater, after 15 minutes

Structure (SMILES): OCCO [ethylene glycol]
- individuals showing relatively good swimming behavior ([1]; 7.2 molar ethylene glycol stock solution, on ice, even after 24 hour of exposure): 80-90%
- level of viability of recovered nauplii ([1]; 7.2 molar ethylene glycol stock solution, on ice, even after 24 hour of exposure, cryoprotectant washed out): 2-3
- harm to nauplii in toxicity test ([1]; equilibrium period of 24 hours with 7.2 M (stock solution) ice cold): does not considerably harm barnacle nauplii
- nauplii with natural swimming activity (level 4) after thawing [2]: > 50%
- swimming activity level of the remaining nauplii after thawing [2]: 1-3
- viability, difference between volume ratios ([3]; 30%, 40% or 50% cryoprotectant to 70%, 60% or 50% organisms (volume/volume), triplicate): no significant between the treatments in terms of viability
- vitality, difference between equilibrium periods ([3]; incubated 0, 15, 30, 60 minutes in 7.2 M at 5 ° C., 1:1 volume ratio): No significant differences in vitality
- vitality after equilibrium period ([3]; incubated 90 minutes in 7.2 M at 5 ° C., 1:1 volume ratio): less vital organisms than the other treatments
- equilibration of cryoprotectant with the organisms ([4]; 7.2 molar solution added to drained material): < 15%
- content as share of the added ethylene glycol [4, 6]: < 2%
- ethylene glycol concentration in nauplii [4, 6]: about 0.1 M
- content of ethylene glycol in drained barnacle nauplii ([4]; after one hour): < 25 ppm
- content of ethylene glycol in drained barnacle nauplii ([4]; after two hours, detection level): < 10 ppm
- ethylene glycol concentration inside the organisms ([4]; second step: drained, 15 liter of seawater added for washing): < 300 ppm
- ethylene glycol content in nauplii ([4]; time zero sample, rinsed until thawed, 7.2 M, volume ratio 1:1): 7400-11000 ppm
- level regarded as non-toxic (aquatic organisms): ≤ 100 ppm
- damage to nauplii [5]: did not cause damage

Structure (SMILES): C[S+](C)[O-] [DMSO, dimethyl sulfoxide]
- viability after thawing ([3]; 6 molar solution, 1:1 mixing, equilibrium 30 minutes at 3 to 5° C.): comparable to barnacle nauplii exposed to ethylene glycol

Structure (SMILES): [Cl-].[Na+] [NaCl]
- revitalization of nauplii (nauplii): improve the revitalization of nauplii compared to no salt addition

Structure (SMILES): CC(O)CO (centres unmarked) [propylene glycol]
- percentage of viable nauplii after thawing ([3]; 40% by volume mixed with 60% by volume seawater, volume ratio 1:1): minimal compared to ethylene glycol
